From US8835646B2, “Organic compounds” (Novartis AG, priority 2005, dated 2014)
pIC50: −log10 of the molar value. Like-named read-outs stand apart in the source and are kept apart here.

Experiments:
[1] = biological target: T1, aldosterone synthase (Homo sapiens, UniProt P19099); test: cellular aldosterone production in NCI-H295R cells stimulated with Ang II (RIA/SPA); assay type: cell-based; details: human adrenocortical carcinoma NCI-H295R cells, 1 μM Ang II, 24 hr
T1 construct: host or cells: NCI-H295R
T1 sequence (P19099 25-503): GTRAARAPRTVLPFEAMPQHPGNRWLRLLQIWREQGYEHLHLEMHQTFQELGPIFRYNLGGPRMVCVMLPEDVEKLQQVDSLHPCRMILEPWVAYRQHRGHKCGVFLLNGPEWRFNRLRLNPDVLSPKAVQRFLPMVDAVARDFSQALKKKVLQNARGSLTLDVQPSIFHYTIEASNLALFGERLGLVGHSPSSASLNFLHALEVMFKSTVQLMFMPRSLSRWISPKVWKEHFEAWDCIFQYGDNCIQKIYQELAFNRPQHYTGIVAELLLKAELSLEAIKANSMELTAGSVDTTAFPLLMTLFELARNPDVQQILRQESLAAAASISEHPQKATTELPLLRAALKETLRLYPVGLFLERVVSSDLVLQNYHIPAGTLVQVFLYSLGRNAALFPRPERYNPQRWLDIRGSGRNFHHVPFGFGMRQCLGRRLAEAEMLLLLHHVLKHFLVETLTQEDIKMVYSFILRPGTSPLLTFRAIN
Excerpt: (§1) Human adrenocortical carcinoma NCl-H295R cell line is obtained from American Type Culture Collection (Manassas, Va.). Insulin/transferrin/selenium (ITS)-A supplement (100×), DMEM/F-12, antibiotic/antimycotic (100×), and fetal calf serum (FCS) are purchased from Gibco (Grand Island, N.Y.). Anti-mouse PVT scintillation proximity assay (SPA) beads and NBS 96-well plates are obtained from Amersham (Piscataway, N.J.) and Corning (Acton, Mass.), respectively. Solid black 96-well flat bottom plates are purchased from Costar (Corning, N.Y.). Aldosterone and angiotensin (Ang II) are purchased from Sigma (St. Louis, Mo.). D-[1,2,6,7-^3H(N)]aldosterone was acquired from PerkinElmer (Boston, Mass.). Nu-serum was a product of BD Biosciences (Franklin Lakes, N.J.). The NADPH regenerating system, dibenzylfluorescein (DBF), and human aromatase Supersomes® are obtained from Gentest (Woburn, Mass.).
For in vitro measurement of aldosterone activity, human adrenocortical carcinoma NCI-H295R cells are seeded in NBS 96-well plates at a density of 25,000 cells/well in 100 μl of a growth medium containing DMEM/F12 supplemented with 10% FCS, 2.5% Nu-serum, 1 μg ITS/ml, and 1× antibiotic/antimycotic. The medium is changed after culturing for 3 days at 37° C. under an atmosphere of 5% CO2/95% air. On the following day, cells are rinsed with 100 μl of DMEM/F12 and incubated with 100 μl of treatment medium containing 1 μM Ang II and a compound at different concentrations in quadruplicate wells at 37° C. for 24 hr. At the end of incubation, 50 μl of medium is withdrawn from each well for measurement of aldosterone production by an RIA using mouse anti-aldosterone monoclonal antibodies.
Measurement of aldosterone activity can also be performed using a 96-well plate format. Each test sample is incubated with 0.02 μCi of D-[1,2,6,7-^3H(N)]aldosterone and 0.3 μg of anti-aldosterone antibody in phosphate-buffered saline (PBS) containing 0.1% Triton X-100, 0.1% bovine serum albumin, and 12% glycerol in a total volume of 200 μl at room temperature for 1 hr. Anti-mouse PVT SPA beads (50 μl) are then added to each well and incubated overnight at room temperature prior to counting in a Microbeta plate counter. The amount of aldosterone in each sample is calculated by comparing with a standard curve generated using known quantities of the hormone.
(§2) Full concentration-response curves of the test compound are performed at least 3 times. The IC50 values are derived using a non-linear least squares curve-fitting program from Microsoft XLfit.

[2] = biological target: T2, human aromatase (Homo sapiens, UniProt P11511); test: human aromatase assay (Supersomes, DBF substrate, fluorescence); assay type: biochemical; details: for inhibition at 10 µM: 10000 nM
T2 construct: purchased Gentest (Woburn, Mass.)
T2 sequence (P11511 1-503): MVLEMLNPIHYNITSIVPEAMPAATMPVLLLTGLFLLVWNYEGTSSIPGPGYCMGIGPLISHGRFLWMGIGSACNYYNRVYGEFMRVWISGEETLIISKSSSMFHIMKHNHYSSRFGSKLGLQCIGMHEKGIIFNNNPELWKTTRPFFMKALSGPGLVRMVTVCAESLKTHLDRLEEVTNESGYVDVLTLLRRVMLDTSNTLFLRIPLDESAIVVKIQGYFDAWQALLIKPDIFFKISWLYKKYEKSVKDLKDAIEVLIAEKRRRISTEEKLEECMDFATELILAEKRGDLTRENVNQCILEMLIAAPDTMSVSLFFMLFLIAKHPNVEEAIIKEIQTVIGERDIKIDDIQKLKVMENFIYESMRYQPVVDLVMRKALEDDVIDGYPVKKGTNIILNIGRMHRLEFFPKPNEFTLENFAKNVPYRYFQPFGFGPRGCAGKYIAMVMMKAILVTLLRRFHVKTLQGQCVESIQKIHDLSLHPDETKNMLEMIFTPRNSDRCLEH
Excerpt: as §1
To measure aromatase activity, the human aromatase assay is performed in 96-well flat bottom plates according to a published protocol (Stresser et al, 2000) with minor modifications. Briefly, 10 μl of an NADPH regenerating system containing 2.6 mM NADP^+, 6.6 mM glucose 6-phosphate, 6.6 mM MgCl2, and 0.8 U/ml glucose-6-phosphate dehydrogenase in 50 mM potassium phosphate, pH 7.4, is pre-incubated with the test compound at a desired concentration at 30° C. for 10 min in a total volume of 100 μl. Afterwards, 4 pmol of human aromatase, 20 μg of control microsomal protein, and 4 μM DBF in 100 μl of 50 mM potassium phosphate, pH 7.4, is added to each well and incubated at 30° C. for 90 min. The reaction is terminated by the addition of 75 μl of 2 N NaOH to each well. After 2 hr, the product, fluorescein, is measured by a fluorimeter using excitation and emission wavelengths of 485 and 538 nm, respectively.
as §2

Row | SMILES | pIC50 [1] | inhibition at 10 µM [2] [%] | % inhibition of aromatase @ 10000 nM ([2]; 10 µM) [%] | % inhibition of aromatase @ 10000 nM [2] [%]
1 | CC1CCCC(c2ccc(C#N)cc2-c2ccc(F)cc2)n2cncc21 (single isomer, unassigned) [4′-Fluoro-6-(9-methyl-6,7,8,9-tetrahydro-5H-imidazo[1,5-a]azepin-5-yl)biphenyl-3-carbonitrile] | – | 81 | – | –
2 | CCC1(c2ccc(C#N)cc2Cl)CCCCc2cncn21 (stereo not shown) [3-Chloro-(5-ethyl-6,7,8,9-tetrahydro-5H-imidazo[1,5-a]azepin-5-yl)benzonitrile] | 6.66 | 91 | – | –
3 | C=Cc1cc(C#N)ccc1C1CCc2cncn21 (stereo not shown) [4-(6,7-Dihydro-5H-pyrrolo[1,2-c]imidazol-5-yl)-3-vinylbenzonitrile] | 7.51 | 95 | – | –
4 | COc1cc(C#N)ccc1C1CCc2cncn21 (stereo not shown) [4-(6,7-Dihydro-5H-pyrrolo[1,2-c]imidazol-5-yl)-3-methoxybenzonitrile] | 7.74 | 100 | – | –
5 | Cc1cc(C#N)ccc1C1CCc2cncn21 (single isomer, unassigned) [4-(6,7-Dihydro-5H-pyrrolo[1,2-c]imidazol-5-yl)-3-methylbenzonitrile] | – | 96 | – | 96
6 | C=C1CC(c2ccc(C#N)cc2F)n2cncc21 (stereo not shown) [3-Fluoro-4-(7-methylene-6,7-dihydro-5H-pyrrolo[1,2-c]imidazol-5-yl)benzonitrile] | 8.40 | 95 | – | –
7 | N#Cc1ccc(C2CCCCc3cncn32)c(Cl)c1 (stereo not shown) [3-Chloro-4-(6,7,8,9-tetrahydro-5H-imidazo[1,5-a]azepin-5-yl)benzonitrile] | 7.32 | 100 | – | –
8 | C=C1CC2(CCCCc3cncn32)c2ccc(C#N)cc21 (stereo not shown) [3′-Methylene-2′,3′,6,7,8,9-hexahydrospiro[imidazo[1,5-a]azepine-5,1′-indene]-5′-carbonitrile] | 7.96 | 100 | – | –
9 | Fc1ccc(C2CCCCc3cncn32)c(Br)c1 (stereo not shown) [5-(2-Bromo-4-fluorophenyl)-6,7,8,9-tetrahydro-5H-imidazo[1,5-a]azepine] | 7.19 | 92 | – | –
10 | COc1cc(C2CCc3cncn32)ccc1C#N (stereo not shown) [4-(6,7-Dihydro-5H-pyrrolo[1,2-c]imidazol-5-yl)-2-methoxybenzonitrile] | 8.30 | 97 | – | –
11 | COc1cc(C#N)ccc1C1CCCc2cncn21 (stereo not shown) [3-Methoxy-4-(5,6,7,8-tetrahydro-imidazo[1,5-a]pyridin-5-yl)benzonitrile] | 6.57 | 100 | – | –
12 | N#Cc1ccc(C2(C(=O)N3CCOCC3)CCc3cncn32)c(Cl)c1 (stereo not shown) [3-Chloro-4-[5-(morpholino-4-carbonyl)-6,7-dihydro-5H-pyrrolo[1,2-c]imidazol-5-yl]benzonitrile] | 6.45 | – | – | –
13 | N#Cc1ccc(C2(C(=O)OCc3ccc(F)cc3)CCc3cncn32)c(Cl)c1 (single isomer, unassigned) [5-(2-Chloro-4-cyanophenyl)-6,7-dihydro-5H-pyrrolo[1,2-c]imid] [5-(2-Chloro-4-cyanophenyl)-6,7-dihydro-5H-pyrrolo[1,2-c]imidazole-5-carboxylic acid 4-fluorobenzyl ester] | – | – | 98 | –
14 | CC1CCCC(c2ccc(C#N)cc2-c2ccc(F)cc2)n2cncc21 (single isomer, unassigned) [4′-Fluoro-6-(9-methyl-6,7,8,9-tetrahydro-5H-imidazo[1,5-a]az] [4′-Fluoro-6-(9-methyl-6,7,8,9-tetrahydro-5H-imidazo[1,5-a]azepin-5-yl)biphenyl-3-carbonitrile] | – | – | 98 | –

Further lines, results first:

Row | pIC50 [1] | inhibition at 10 µM [2] [%] | % inhibition of aromatase @ 10000 nM ([2]; 10 µM) [%] | % inhibition of aromatase @ 10000 nM [2] [%] | SMILES
15 | 8.15 | 100 | – | – | N#Cc1ccc([C@@H]2C[C@H](Cc3ccc(F)cc3)Cc3cncn32)c(F)c1 (relative stereo) [cis- and trans-3-Fluoro-4-[7-(4-fluorobenzyl)-5,6,7,8-tetrahydroimidazo[1,5-a]pyridin-5-yl]benzonitrile]
16 | – | – | 97 | – | COc1ccc(CN(C)C(=O)C2(c3ccc(C#N)cc3Cl)CCc3cncn32)cc1 (single isomer, unassigned) [5-(2-chloro-4-cyanophenyl)-6,7-dihydro-5H-pyrrolo[1,2-c]imid] [5-(2-Chloro-4-cyanophenyl)-6,7-dihydro-5H-pyrrolo[1,2-c]imidazole-5-carboxylic acid (4-methoxybenzyl)methylamide]
17 | – | 98 | – | – | COc1ccc(CN(C)C(=O)C2(c3ccc(C#N)cc3Cl)CCc3cncn32)cc1 (single isomer, unassigned) [5-(2-Chloro-4-cyanophenyl)-6,7-dihydro-5H-pyrrolo[1,2-c]imidazole-5-carboxylic acid (4-methoxybenzyl)methylamide]
18 | 8.30 | 96 | – | – | COc1cc(C#N)ccc1C1(C(=O)OCCOC(C)C)CCc2cncn21 (stereo not shown) [5-(4-Cyano-2-methoxyphenyl)-6,7-dihydro-5H-pyrrolo[1,2-c]imidazole-5-carboxylic acid 2-isopropoxyethyl ester]
19 | 7.96 | 99 | – | – | N#Cc1ccc(C2CC3(CC3)c3cncn32)c(F)c1 (stereo not shown) [5′-[2-fluoro-4-cyano-phenyl]-5′,6′-dihydrospiro[cyclopropane-1,7′-pyrrolo[1,2-c]imidazole]]
20 | 6.57 | – | – | – | CC1(c2ccc(C#N)cc2-c2ccccc2)CCCc2cncn21 (stereo not shown) [6-(5-Methyl-5,6,7,8-tetrahydroimidazo[1,5-a]pyridin-5-yl)biphenyl-3-carbonitrile]
21 | 6.61 | – | – | – | COC(=O)C1(c2ccc(C#N)cc2C(F)(F)F)CCc2cncn21 (stereo not shown) [5-(4-Cyano-2-trifluoromethylphenyl)-6,7-dihydro-5H-pyrrolo[1,2-c]imidazole-5-carboxylic acid methyl ester]
22 | 8.70 | 99 | – | – | COC(=O)C1(c2ccc(C#N)cc2OC(F)(F)F)CCc2cncn21 (stereo not shown) [5-(4-Cyano-2-trifluoromethoxyphenyl)-6,7-dihydro-5H-pyrrolo[1,2-c]imidazole-5-carboxylic acid methyl ester]
23 | – | 91 | – | – | N#Cc1ccc(C2(C(=O)OCc3ccc(F)cc3)CCc3cncn32)c(Cl)c1 (single isomer, unassigned) [5-(2-Chloro-4-cyanophenyl)-6,7-dihydro-5H-pyrrolo[1,2-c]imidazole-5-carboxylic acid 4-fluorobenzyl ester]
